Assay results as given in article PMC6053381, “Novel 2-phenyloxypyrimidine derivative induces apoptosis and autophagy via inhibiting PI3K pathway and activating MAPK/ERK signaling in hepatocellular carcinoma cells” (Scientific Reports, 2018).

Legend:
[1] = target: PDGFRα (Homo sapiens, UniProt P16234); test: PDGFR kinase assay, Caliper microfluidic mobility shift; format: biochemical; settings: compound at 1 µM; averages of two separate experiments
Method: (§1) In vitro inhibitory activities of all compounds at 1 μM against PDGFRα and PDGFRβ were evaluated using Caliper microfluidic mobility shift technology. […] At the same concentration, only E5 inhibited greater than 50% of PDGFRβ activity (Fig. 2B).
(§2) PDGFR kinase activity was measured using Caliper microfluidic mobility shift technology. Briefly, 2 μL compound solution (25 μM) in 25% DMSO per well were added into the 384 well microtiter plates. Then, 10 μL per well of enzyme solution (100 mM HEPES, 10 mM MgCl2, Brij35 (30%) 100 μL, 1 mM DTT, 20 ng enzyme) was added. After a brief centrifugation at 1,000 rpm, the kinase reactions were started by addition of 38 μL per well of peptide/ATP-solution (40 μM ATP, 6.5 μM peptide 5′-FAM-KKKKEEIYFFF-NH2, Tris-HCl buffer, pH 7.0) incubated at 30 °C for 60 min and stopped by the addition of 20 μL 35 mM EDTA per well. The electrophoretic separation of the phosphorylated and non-phosphorylated peptides was then carried out on LabChip EZ Reader II (Caliper Life Sciences). All other kinase reactions were carried out as previously reported using the Kinase-Glo Plus or ADP-Glo assay. Kinase inhibition rates were calculated per manufacturer’s instructions.

[2] = target: PDGFRβ (Homo sapiens, UniProt P09619); test: as above; format: biochemical; settings: compound at 1 µM; averages of two separate experiments
PDGFRβ, sequence (P09619 33-1106): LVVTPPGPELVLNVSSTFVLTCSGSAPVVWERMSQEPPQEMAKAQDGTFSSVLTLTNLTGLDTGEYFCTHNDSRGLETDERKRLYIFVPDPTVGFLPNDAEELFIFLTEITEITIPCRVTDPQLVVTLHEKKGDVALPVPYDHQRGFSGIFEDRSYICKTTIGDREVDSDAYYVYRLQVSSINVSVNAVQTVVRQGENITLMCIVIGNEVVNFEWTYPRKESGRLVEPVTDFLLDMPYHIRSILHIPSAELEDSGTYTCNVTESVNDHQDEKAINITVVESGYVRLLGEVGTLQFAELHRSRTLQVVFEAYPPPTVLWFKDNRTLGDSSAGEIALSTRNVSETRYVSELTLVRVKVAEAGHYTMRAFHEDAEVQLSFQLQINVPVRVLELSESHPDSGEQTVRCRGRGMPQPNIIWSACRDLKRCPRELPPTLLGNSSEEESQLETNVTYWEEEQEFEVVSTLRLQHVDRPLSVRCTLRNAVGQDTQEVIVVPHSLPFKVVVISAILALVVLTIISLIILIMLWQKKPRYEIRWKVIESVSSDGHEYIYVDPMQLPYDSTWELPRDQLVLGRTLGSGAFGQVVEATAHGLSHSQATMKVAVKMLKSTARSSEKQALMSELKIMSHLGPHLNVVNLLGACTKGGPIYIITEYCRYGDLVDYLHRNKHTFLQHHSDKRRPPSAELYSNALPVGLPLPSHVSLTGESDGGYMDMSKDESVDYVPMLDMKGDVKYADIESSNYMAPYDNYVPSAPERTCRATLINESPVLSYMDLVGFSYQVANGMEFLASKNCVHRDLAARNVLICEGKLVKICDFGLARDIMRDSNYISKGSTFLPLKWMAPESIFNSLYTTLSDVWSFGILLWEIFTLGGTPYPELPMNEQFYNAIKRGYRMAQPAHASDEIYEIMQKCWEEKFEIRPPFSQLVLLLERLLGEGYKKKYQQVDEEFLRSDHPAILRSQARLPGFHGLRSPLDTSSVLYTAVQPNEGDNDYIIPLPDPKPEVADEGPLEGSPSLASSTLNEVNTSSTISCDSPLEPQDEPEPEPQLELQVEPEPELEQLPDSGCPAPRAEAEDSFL
Method: as §1, §2

[3] = test system: BEL7404; test: CellTiter-Glo luminescent cell viability assay; format: cell-based; settings: 120 h incubation, read-out: Anti-proliferative activity IC50 BEL7404
Description: (§3) The in vitro antitumor activity of all compounds was screened against six HCC cell lines by CellTiter-Glo luminescent cell viability assay as described earlier. […] After a comprehensive assessment of PDGFR inhibition, cellular activity against HCC cells as well as potential druggability, E5 was chosen to investigate its kinase profiling, antitumor activity and molecular mechanism in the following study. […]
(§4) authenticated by using short tandem repeat (STR) matching analysis. No mycoplasma contamination was detected.
(§5) CellTiter-Glo luminescent cell viability assay
(§6) For experiments hepatocellular carcinoma cells were seeded at 4000 cells per well in 96-well plates. After overnight incubation, solution of compounds in DMSO at various concentrations were added to the cells and further incubated for 120 h. Cell viability was measured with the CellTiter-Glo Luminescent Cell Viability Assay (Promega) according to the manufacturer’s instructions. Luminescence was measured using an EnVision Multilabel Plate Reader (Perkin-Elmer). The cytotoxicity of the compounds was expressed as the percent age of luminescence relative to that of untreated cells . The concentration of compound producing 50% of cell proliferation (IC50) was calculated by nonlinear regression analysis of the response-concentration (log) curve, using the Graph-Pad Prism program package (Graph Pad Software; San Diego, CA). Results are expressed as the means of two […] experiments

[4] = test system: Hep3B; test: CellTiter-Glo luminescent cell viability assay; format: cell-based; settings: 120 h incubation, read-out: Anti-proliferative activity IC50 Hep3B
Description: as §3, §4, §5, §6

[5] = test system: MHCC97-L; test: CellTiter-Glo luminescent cell viability assay; format: cell-based; settings: 120 h incubation, read-out: Anti-proliferative activity IC50 MHCC97-L
Description: as §3, §4, §5, §6

[6] = test system: QGY-7703; test: CellTiter-Glo luminescent cell viability assay; format: cell-based; settings: 120 h incubation, read-out: Anti-proliferative activity IC50 QGY-7703
Description: as §3, §4, §5, §6

[7] = test system: SMMC-7721; test: CellTiter-Glo luminescent cell viability assay; format: cell-based; settings: 120 h incubation, read-out: Anti-proliferative activity IC50 SMMC-7721
Description: as §3, §4, §5, §6

[8] = test system: SNU368; test: CellTiter-Glo luminescent cell viability assay; format: cell-based; settings: 120 h incubation, read-out: Anti-proliferative activity IC50 SNU368
Description: as §3, §4, §5, §6

PDGFRα, sequence (P16234 24-1089): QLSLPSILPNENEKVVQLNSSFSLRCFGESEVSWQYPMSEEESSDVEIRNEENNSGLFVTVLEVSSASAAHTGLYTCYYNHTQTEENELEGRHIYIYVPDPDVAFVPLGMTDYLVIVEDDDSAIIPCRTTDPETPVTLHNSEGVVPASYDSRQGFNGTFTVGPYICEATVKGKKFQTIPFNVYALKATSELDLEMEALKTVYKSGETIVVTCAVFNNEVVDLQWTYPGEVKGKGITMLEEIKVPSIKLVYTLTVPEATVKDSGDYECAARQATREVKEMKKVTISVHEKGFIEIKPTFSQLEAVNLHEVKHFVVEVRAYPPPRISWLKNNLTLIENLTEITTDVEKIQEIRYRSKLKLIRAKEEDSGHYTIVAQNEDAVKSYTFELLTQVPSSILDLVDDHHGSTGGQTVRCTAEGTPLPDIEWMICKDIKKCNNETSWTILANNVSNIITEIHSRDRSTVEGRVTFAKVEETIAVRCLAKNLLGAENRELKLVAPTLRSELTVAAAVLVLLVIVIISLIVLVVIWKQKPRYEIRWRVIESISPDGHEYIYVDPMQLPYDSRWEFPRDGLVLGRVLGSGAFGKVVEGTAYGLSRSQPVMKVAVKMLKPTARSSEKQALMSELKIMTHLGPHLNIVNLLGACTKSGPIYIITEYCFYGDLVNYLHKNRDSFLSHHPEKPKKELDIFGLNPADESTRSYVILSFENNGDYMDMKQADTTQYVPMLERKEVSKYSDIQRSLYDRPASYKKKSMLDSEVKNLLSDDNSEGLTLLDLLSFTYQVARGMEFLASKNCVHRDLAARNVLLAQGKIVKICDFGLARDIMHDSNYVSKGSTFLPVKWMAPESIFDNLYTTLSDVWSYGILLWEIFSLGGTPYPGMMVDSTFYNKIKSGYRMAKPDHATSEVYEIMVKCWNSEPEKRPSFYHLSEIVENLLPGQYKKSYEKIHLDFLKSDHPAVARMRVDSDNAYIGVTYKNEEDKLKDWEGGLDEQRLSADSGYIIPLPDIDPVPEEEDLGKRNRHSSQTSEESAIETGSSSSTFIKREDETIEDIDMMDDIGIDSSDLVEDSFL

| SMILES | Inhibition effect (%) PDGFRα [1] [%] | Inhibition effect (%) PDGFRβ [2] [%] | IC50 [3] [µM] | IC50 [4] [µM] | IC50 [5] [µM] | IC50 [6] [µM] | IC50 [7] [µM] | IC50 [8] [µM] |
| --- | --- | --- | --- | --- | --- | --- | --- | --- |
| Cc1ccc(NC(=O)c2ccco2)cc1Oc1nccc(-c2cc3ccccc3n2C)n1 [F3] | 24.14 | 25.67 | 15.6 | 41.8 | > 200 | 97.7 | 18.4 | 26.5 |
| Cc1ccc(C(=O)Nc2ccc(C)c(Oc3nccc(-c4cccnc4)n3)c2)cc1 [A3] | 45.45 | 45.50 | 32.8 | 21.2 | 22.3 | 47 | 25.1 | 51.4 |
| CCC(=O)Nc1ccc(C)c(Oc2nccc(-c3cc4ccccc4n3C)n2)c1 [F2] | 12.21 | -4.46 | 19 | 33.8 | 31.8 | 51.9 | 27.9 | 29.1 |
| CCC(=O)Nc1ccc(C)c(Oc2nccc(-c3cccc4ccccc34)n2)c1 [C2] | 33.78 | 2.07 | 48.2 | 36.3 | 111 | 120 | 29.5 | 55.9 |
| Cc1ccc(NC(=O)c2ccco2)cc1Oc1nccc(-c2cc3ccccc3o2)n1 [E3] | -2.00 | 3.83 | 1.2 | 125 | 9.6 | 0.7 | 0.7 | 1.3 |
| Cc1ccc(NC(=O)c2ccc(Cl)cc2)cc1Oc1nccc(-c2ccco2)n1 [D6] | 33.02 | 37.47 | 10.9 | 7.3 | 24.6 | 25.8 | 8.2 | 12.7 |
| Cc1ccc(NC(=O)c2ccoc2)cc1Oc1nccc(-c2cc3ccccc3o2)n1 [E4] | 27.18 | 7.35 | 5.2 | 15.8 |  |  | 0.4 | 11.4 |
| Cc1ccc(NC(=O)Cc2ccccc2)cc1Oc1nccc(-c2cccnc2)n1 [A2] |  | 40.73 | 39.3 | 39.5 | > 200 | 59.8 | 84.3 | 112 |
| Cc1cccc(C(=O)Nc2ccc(C)c(Oc3nccc(-c4cccnc4)n3)c2)c1 [A4] |  | 43.74 | 12.2 | 17.5 | 24.5 | 39.8 | 17.5 | 54 |
| Cc1ccc(NC(=O)c2ccccc2)cc1Oc1nccc(-c2ccco2)n1 [D1] | 13.74 | 28.93 | 48.7 | 11.4 | 1.6 | 2.5 | 1.5 | 37.3 |
| Cc1ccc(NC(=O)c2ccc(Cl)cc2)cc1Oc1nccc(-c2ccccc2)n1 [B6] | 12.21 | 18.64 | 13.4 | 7.9 | 10.5 | 15.4 | 9.7 | 15 |
| Cc1ccc(NC(=O)c2ccoc2)cc1Oc1nccc(-c2cccc3ccccc23)n1 [C4] | 13.73 | 2.83 | 8.8 | 22.9 | 96.4 | 14.9 | 12 | 15.8 |
| Cc1ccc(NC(=O)c2ccccc2)cc1Oc1nccc(-c2ccccc2)n1 [B1] | 2.32 | 12.87 | 10.5 | 2.7 | 4.9 | 5.8 | 2.7 | 17.7 |
| COc1ccc(C(=O)Nc2ccc(C)c(Oc3nccc(-c4ccco4)n3)c2)cc1 [D3] | 22.61 | 37.72 | 17.6 | 9.7 | 8.5 | 15.7 | 7.9 | 22.2 |
| Cc1ccc(NC(=O)c2ccc(F)cc2)cc1Oc1nccc(-c2cccnc2)n1 [A10] | 40.63 | 30.94 | 28.2 | 20.1 | 35.7 | 43.4 | 21.1 | 38.7 |
| Cc1ccc(NC(=O)c2ccc([N+](=O)[O-])cc2)cc1Oc1nccc(-c2ccccc2)n1 [B8] | 26.17 | 37.71 | 9.9 | 9 | 14 | 14.4 | 7.5 | 12 |
| Cc1ccc(NC(=O)c2ccc([N+](=O)[O-])cc2)cc1Oc1nccc(-c2cccnc2)n1 [A8] |  | 43.24 | 20.1 | 14.3 | 34.6 | 24.6 | 10.1 | 25.7 |
| Cc1ccc(NC(=O)c2cccc(Cl)c2)cc1Oc1nccc(-c2cccnc2)n1 [A7] |  | 40.23 | 32.8 | 18.9 | 51.5 | 57.8 | 27.2 | 45.9 |
